According to ChEMBL document CHEMBL1614631, “Comparative evaluation of oral systemic exposure of 56 xenobiotics in rat, dog, monkey and human” (Xenobiotica, 2005):

How the values were obtained:
[1] = Dose normalised AUC in monkey after po administration; conditions: macaca, in vivo
[2] = Dose normalised AUC in dog after po administration; conditions: in vivo
[3] = Dose normalised AUC in human after po administration; conditions: in vivo
[4] = Dose normalised AUC in rat after po administration; conditions: in vivo

SMILES | DNAUC [1] [kg·min/L] | DNAUC [2] [kg·min/L] | DNAUC [3] [kg·min/L] | DNAUC [4] [kg·min/L]
CC(C)(C)S(=O)(=O)C[C@@H](Cc1ccccc1)C(=O)N[C@@H](Cc1cnc[nH]1)C(=O)N[C@@H](CC1CCCCC1)[C@@H](O)[C@@H](O)C1CC1 [REMIKIREN] | 0.14 | 0.63 | 0.2 | 0.25
CC(C)c1nc(CN(C)C(=O)N[C@H](C(=O)N[C@@H](Cc2ccccc2)C[C@H](O)[C@H](Cc2ccccc2)NC(=O)OCc2cncs2)C(C)C)cs1 [RITONAVIR] | 27.18 | 101.08 | 370.17 | 41.59
COc1nccc(-c2c(-c3ccc(F)cc3)ncn2C2CCNCC2)n1 [SB-242235] | 115.9 | 147.59 | 141 | 37.61
O=P(O)(O)C(Sc1ccc(Cl)cc1)P(=O)(O)O [TILUDRONIC ACID] | 171.6 | 129.6 | 286.32 | 37.2
Cc1c(C)c2c(c(C)c1O)CCC(C)(COc1ccc(CC3SC(=O)NC3=O)cc1)O2 (centres undefined) [TROGLITAZONE] | 34.08 | 61.2 | 80.71 | 13.44
N[C@@H]1[C@H]2CN(c3nc4c(cc3F)c(=O)c(C(=O)O)cn4-c3ccc(F)cc3F)C[C@@H]12 [TROVAFLOXACIN] | 120.6 | 44.25 | 540 | 51
COc1ccc(C(CN(C)C)C2(O)CCCCC2)cc1 (centres undefined) [VENLAFAXINE] | 1.8 | 48 | 1 | 1.97

Continued, values first:

DNAUC [1] [kg·min/L] | DNAUC [2] [kg·min/L] | DNAUC [3] [kg·min/L] | DNAUC [4] [kg·min/L] | SMILES
48 | 72.4 | 98.57 | 6.3 | Cc1cccc(C)c1NC(=O)NCCCNC(C)C [RECAINAM]
3821.3 | 5554 | 8161.43 | 4415.2 | CN1C(C(=O)Nc2nccs2)=C(O)c2ccccc2S1(=O)=O [SUDOXICAM]
355 | 1108 | 619.76 | 320 | CC(C(=O)O)c1ccc(C(=O)c2cccs2)cc1 (centres undefined) [SUPROFEN]
2097 | 1458 | 3030 | 663 | NS(=O)(=O)Cc1noc2ccccc12 [ZONISAMIDE]
